Results reported in patent US12331095B2, “Inducible T cell receptors and uses thereof” (MEDIGENE IMMUNOTHERAPIES GMBH, priority 2018, dated 2025).

System: CD8+ PBL
Experiment: Flow cytometry (CD3, BV6-5) for induction of iTCR-NY-ESO on the surface of CD8+ PBL
Format: cell-based
Details: any of the concentrations tried (data not shown)
Protocol: FIG. 9: CD8^+ PBL transduced with iTCR-NY-ESO (MHC-I restricted TCR) or CD8^+ PBL expressing wt-NY-ESO were induced overnight with 1, 5, 10 or 20 μM Endoxifen or were left uninduced (no Endoxifen). 24 h after induction T2 cells loaded with relevant peptide SLLMWITQC (SEQ ID NO: 12) or irrelevant peptide VLDGLDVLL (SEQ ID NO: 11) were added to the cultures. IFN-γ secretion was detected by standard IFN-γ ELISA performed with the culture supernatants 24 h after stimulation with T2 targets. Flow cytometry was performed 48 h after induction and cells were assessed for BFP (transductants), CD3 and BV6-5. Exemplary plots shown are iTCR-NY-ESO transduced CD8^+ PBL without induction or with 20 μM Endoxifen. Plots were generated using the analysis tool FlowJo V10. Graph was plotted using graphPad Prism 7.
PBL from a healthy donor was enriched for CD8^+ cells using a commercial cell isolation kit (CD8+untouched) and transduced with the lentiviral vector carrying the iTCR-NY-ESO cassette or with the lentiviral vector carrying wt-NY-ESO as positive control. […] CD8^+ cells carrying either iTCR-NY-ESO were induced overnight with 20 μM Endoxifen or left untreated. Cells were then stained for CD3 (CD3-PECy7, SK7, 557851, BD) and the specific V-beta family BV6-5 (antibody: TRBV6-5-PE, IMMU 222, IM2292, Beckman Coulter).

`CCC(=C(c1ccc(O)cc1)c1ccc(OCCN(C)C)cc1)c1ccccc1` [4-Hydroxytamoxifen, 4-(1-[4-(Dimethylaminoethoxy)phenyl]-2-phenyl-1-butenyl)phenol] was tested, and the “induction of iTCR-NY-ESO in PBL” value was “did not induce iTCR-NY-ESO in PBL in any of the concentrations tried”.
